This note sets out measurements from PMC10049354, “Anti-Inflammatory Effects and Photo- and Neuro-Protective Properties of BIO203, a New Amide Conjugate of Norbixin, in Development for the Treatment of Age-Related Macular Degeneration (AMD)” (International Journal of Molecular Sciences, 2023).

For data set [1], the system named is primary porcine RPE cells. Briefly: RPE phototoxicity: photoprotection of RPE cells exposed to A2E and blue light. As to conditions: all concentrations from 10 to 20 μM; A2E 30 μM + blue light. Format: cell-based, pig. On the procedure:
RPE cells were obtained from pig eyes, as previously described. RPE cells were seeded on a 96-well plate at a density of 1.5 × 10^5 cells/cm^2 in DMEM 2% FCS. BIO201, BIO203, or its pure enantiomers were added in increasing concentrations to the culture medium 48 h before illumination. A2E was added to the medium at a final concentration of 30 μM, and 19 h later, blue-light illumination was performed for 50 min using a 96 blue-led device (Durand, St Clair de la Tour, France) emitting at 470 nm (1440 mcd, 8.6 mA). Just before illumination, the culture medium was replaced by a modified DMEM without any photosensitizer and with 2% FCS. Twenty-four hours after blue-light irradiation, all cell nuclei were stained with Hoechst 33342, and nuclei of dead cells with ethidium homodimer 2, fixed with paraformaldehyde (4% in PBS, 10 min) and 9 pictures per well were captured using a fluorescence microscope (Nikon TiE) equipped with a CoolSNAP HQ2 camera and driven by Metamorph Premier On-Line program. Quantification of live cells was performed using Metamorph Premier Off-Line and a homemade program by subtraction of dead cells from all cells. For cytokines mRNA analysis, RPE cells were seeded in 24-well plates and left untreated or treated with A2E or BIO203 alone or A2E plus BIO203. After 48 h, cells were lysed using the lysis buffer from the NucleoSpin® RNA kit, and the samples were stored at −80 °C.

Data set [2] relates to albino rats exposed to blue-light-induced photoreceptor degeneration. Briefly: Blue-light damage (BLD) study in albino rats: retinal histology (photoreceptor layers). In kind it is in vivo, rat. As to conditions: 50 mg/kg, four IP administrations; 6 h blue-light exposure; p < 0.0001. On the procedure: At the end of the measurement period on Day 7, rats were euthanized by an intraperitoneal injection of pentobarbital. Immediately after euthanasia, both eyeballs were sampled, fixed in Davidson’s solution, and processed for histology. Sections (5 to 7 µm thick) were performed along the vertical meridian and stained with Haematoxylin/Eosin stain. The vertical meridian included the optic nerve. […] The thickness of the outer nuclear layer was measured on each point. […] Histology and photoreceptor counting in mice were performed as previously described.
(§1) Sixty-four animals were selected based on good health and on scotopic electroretinogram performed before induction when the A-wave amplitude of both eyes was in the range of the global mean (all animals) of A-wave amplitude ± 1.96 SD. Animals were then randomized into the study groups using a macro function in Excel® software based on the A-wave amplitude of both eyes (mean value). On Day 0, BIO203, negative controls, and comparator (N-tert-Butyl-a-phenylnitrone (PBN)) were intraperitoneally injected using a 25 G needle in rats that have been dark-adapted for 36 h. Individually housed rats were then exposed for 6 h (±5 min) to a continuous blue, fluorescent light (400–540 nm) in clear plastic cages. After exposure and administration, the rats were placed in a dark room for 24 h (±1 h) and then were returned to rearing cyclic light conditions.

Data set [3] shares this test system. Briefly: Blue-light damage (BLD) study in albino rats: ERG. In kind it is in vivo, rat. The following applies: 50 mg/kg, four IP administrations; positive controls. How it is done: The ERG in rats was performed using the electrophysiological system RETI-animal® from Roland Consult. ERG was recorded on both eyes from overnight dark-adapted animals. Rats were anesthetized by an intramuscular injection of a mix of Rompun® (xylazine)/Imalgene® (ketamine) before ERG measurement. Ten to fifteen minutes before measurement, one drop of Mydriaticum® (0.5% tropicamide) was instilled for pupillary dilatation. The A-wave and B-wave implicit times (ms) and amplitudes (µV) were measured for each ERG. The B-wave amplitude (value and %) was given as informative data. ERG parameters: Ganzfeld Q450C, Color: white maximum, Maximum intensity: 3 cd/m^2 (0 dB); Duration 0.24 ms; number of flashes: 1, Filter: 50 Hz, Impedance threshold: 50 kΩ. For scotopic ERGs, the A-wave amplitudes were measured from the baseline to the peak of the negative potential, whereas B-wave amplitudes were measured from the trough of the A-wave to the peak of the positive potential. The recordings obtained from these analyses were tabulated and normalized (%) for each eye. Group means, standard deviation, and median values were calculated, considering each eye from one animal as a separate value. ERG recordings in mice were performed as previously described.
as §1

Regarding `CO[C@@H]1CCCN(C(=O)/C=C/C(C)=C/C=C/C(C)=C/C=C/C=C(C)/C=C/C=C(C)\C=C\C(=O)O)C1` [BIO203-R], the “protective activity compared with BIO203 (racemate)” value in data set [1] is on record as “same protective activity as BIO203”.

On to `CO[C@H]1CCCN(C(=O)/C=C/C(C)=C/C=C/C(C)=C/C=C/C=C(C)/C=C/C=C(C)\C=C\C(=O)O)C1` [BIO203-S], for which, in data set [1], the “protective activity compared with BIO203 (racemate)” value is on record as “same protective activity as BIO203”. As for `CC(C)(C)[N+]([O-])=Cc1ccccc1` [PBN, N-tert-Butyl-a-phenylnitrone, reference compound], the “preservation of retinal structure (photoreceptor layers)” value in data set [2] is given as “partially preserved the retinal structure”. Besides, the “effect on visual function (ERG A-wave and B-wave)” value in data set [3] is “protected the visual functions”.
